Assay results reported in patent publication US7307084B2, “Cyclic benzimidazoles” (Altana Pharma AG, priority 2003, dated 2007).

System: pentagastrin-stimulated acid secretion of the perfused rat stomach
Experiment: Testing of the secretion-inhibiting action on the perfused rat stomach
Conditions: dose 1 μmol/kg i.d. (intraduodenal), perfused stomach of anesthetized female CD rat, in vivo
Source text: In Table A which follows, the influence of the compounds according to the invention on the pentagastrin-stimulated acid secretion of the perfused rat stomach after intraduodenal administration in vivo is shown.
The abdomen of anesthetized rats (CD rat, rat, female, 200-250 g; 1.5 g/kg l.m. urethane) was opened after trachetomy by a median upper abdominal incision and a PVC catheter was fixed transorally in the esophagus and another via the pylorus such that the ends of the tubes just projected into the gastric lumen. The catheter leading from the pylorus led outward into the right abdominal wall through a side opening.
After thorough rinsing (about 50-100 ml), warm (37° C.) physiological NaCl solution was continuously passed through the stomach (0.5 ml/min, pH 6.8-6.9; Braun-Unita 1). The pH (pH meter 632, glass electrode EA 147; φ=5 mm, Metrohm) and, by titration with a freshly prepared 0.01N NaOH solution to pH 7 (Dosimat 665 Metrohm), the secreted HCl were determined in the effluent in each case collected at an interval of 15 minutes.
The gastric secretion was stimulated by continuous infusion of 1 μg/kg (=1.65 ml/h) of i.v. pentagastrin (left femoral vein) about 30 min after the end of the operation (i.e. after determination of 2 preliminary fractions). The substances to be tested were administered intraduodenally in a 2.5 ml/kg liquid volume 60 min after the start of the continuous pentagastrin infusion.
The body temperature of the animals was kept at a constant 37.9-38° C. by infrared irradiation and heat pads (automatic, stepless control by means of a rectal temperature sensor).

SMILES | Inhibition of acid secretion [%]
CNC(=O)c1cc2c(nc(C)n2C)c2c1CCC(c1ccccc1)O2 (centres unmarked) [Example 4, 2,3-Dimethyl-8-phenyl-4,6,7,8-tetrahydro-chromeno[7,8-d] imidazole-5-carboxylic Acid Methylamide] | >50
CNC(=O)c1cc2c(nc(C)n2C)c2c1CCC(c1ccccc1)N2 (centres unmarked) [Example 29, 2,3-Dimethyl-8-phenyl-6,7,8,9-tetrahydro-3H-imidazo[4,5-h]quinoline-5-carboxylic Acid Methylamide] | >50
Cc1nc2c3c(c(C(=O)N4CCC4)cc2n1C)CCC(c1ccccc1)O3 (centres unmarked) [Example 18, 1-Azetidin-1-yl-1-(2,3-dimethyl-8-phenyl-3,6,7,8-tetrahydro-chromeno[7,8-d]imidazol-5-yl)-methanone] | >50
Cc1nc2c3c(c(C(=O)N(C)C)cc2n1C)CCC(c1ccccc1)N3 (centres unmarked) [Example 2, 2,3-Dimethyl-8-phenyl-6,7,8,9-tetrahydro-3H-imidazo[4,5-h]quinoline-5-carboxylic Acid Dimethylamide] | >50
Cc1nc2c3c(c(C(=O)N(C)C)cc2n1C)CC[C@@H](c1ccccc1)O3 [33 (8S), (8S)-2,3-Dimethyl-8-phenyl-3,6,7,8-tetrahydro-chromeno[7,8-d]imidazole-5-carboxylic Acid Dimethylamide] | >50
CNC(=O)c1cc2c(nc(C)n2C)c2c1CC[C@@H](c1ccccc1)N2 [32 (8S), (8S)-2,3-dimethyl-8-phenyl-6,7,8,9-tetrahydro-3H-imidazo[4,5-h]quinoline-5-carboxylic acid methylamide] | >50
CN(C)C(=O)c1cc2c(nc(C3CC3)n2C)c2c1CCC(c1ccccc1)O2 (centres unmarked) [Example 10, 2-Cyclopropyl-3-methyl-8-phenyl-3,6,7,8-tetrahydro-chromeno[7,8-d]imidazole-5-carboxylic Acid Dimethylamide] | >50
Cc1nc2c3c(c(C(=O)N(C)C)cc2n1C)CCC(c1ccccc1)O3 (centres unmarked) [Example 1, 2,3-Dimethyl-phenyl-3,6,7,8-tetrahydro-chromeno[7,8-a]imidazole-5-carboxylic Acid Dimethylamide] | >50

System: not given
Experiment: not given
Conditions: not given

SMILES | melting point [°C]
Cc1nc2c3c(c(C(=O)N4CCOCC4)cc2n1C)CCC(c1ccccc1)O3 (centres unmarked) [Example 7, 1-(2,3-Dimethyl-8-phenyl-3,6,7,8-tetrahydro-chromeno[7,8-d]imidazol-5-yl)-1-morpholin-4-yl-methanone] | 291 to 293
Cc1nc2c3c(c(C(=O)NCC(O)CO)cc2n1C)CCC(c1ccccc1)O3 (centres unmarked) [Example 21, 2,3-Dimethyl-8-phenyl-3,6,7,8tetrahydro-chromeno[7,8-d]imidazole-5-carboxylic Acid (2,3-Dihydroxy-propyl)amide] | 268 to 270
Cc1nc2c3c(c(C(=O)NC4CC4)cc2n1C)CCC(c1ccccc1)O3 (centres unmarked) [Example 35, 2,3-Dimethyl-8-phenyl-3,6,7,8-tetrahydro-chromeno[7,8-d]imidazole-5-carboxylic Acid Cyclopropylamide] | 312 to 313
COCCOCc1cc2c(nc(C)n2C)c2c1CCC(c1ccccc1)O2.O=C(O)C(=O)O (centres unmarked) [Example 12, 5-(2-Methoxy-ethoxymethyl)-2,3-dimethyl-8-phenyl-3,6,7,8-tetrahydro-chromeno[7,8-d]-imidazole Oxalic Acid] | 131 to 133
COCc1cc2c(nc(C)n2C)c2c1CCC(c1ccccc1)O2.O=C(O)C(=O)O (centres unmarked) [Example 11, 5-Methoxymethyl-2,3-dimethyl-8-phenyl-3,6,7,8-tetrahydro-chromeno[7,8-d]imidazole Oxalic Acid] | 204 to 205
Cc1nc2c3c(c(CO)cc2n1C)CCC(c1ccccc1)O3 (centres unmarked) [Example 17, (2,3-Dimethyl-8-phenyl-3,6,7,8-tetrahydro-chromeno[7,8-d]imidazol-5-yl)methanol] | 279 to 281
CCc1nc2c3c(c(C(=O)N(C)C)c(-c4ccccc4)c2n1C)CCCO3 [Example 24, 2-Ethyl-3-methyl-4-phenyl-3,6,7,8-tetrahydro-chromeno[7,8-d]imidazole-5-carboxylic Acid Dimethylamide] | 195 to 197
Cc1nc2c3c(ccc2n1C)CCC(c1ccccc1)O3 (centres unmarked) [Example 36, 2,3-Dimethyl-8-phenyl-3,6,7,8-tetrahydro-chromeno[7,8-d]imidazole] | 161 to 164
COCCNC(=O)c1cc2c(nc(C)n2C)c2c1CCC(c1ccccc1)O2 (centres unmarked) [Example 6, 2,3-Dimethyl-8-phenyl-3,6,7,8-tetrahydro-chromeno[7,8-d]imidazole-5-carboxylic Acid (2-Methoxy-ethyl)amide] | 254 to 256

Further lines, results first:

melting point [°C] | SMILES
311 to 319 | Cc1nc2c3c(c(C(N)=O)cc2n1C)CCC(c1ccccc1)N3 (centres unmarked) [Example 28, 2,3-Dimethyl-8-phenyl-6,7,8,9-tetrahydro-3H-imidazo[4,5-h]quinoline-5-carboxylic Acid Amide]
179 to 180 | CC(C)c1nc2c3c(c(C(=O)N(C)C)cc2n1C)CCC(c1ccccc1)O3 (centres unmarked) [Example 9, 2-Isopropyl-3-methyl-8-phenyl-3,6,7,8-tetrahydro-chromeno[7,8-d]imidazole-5-carboxylic Acid Dimethylamide]
273 | CCCNC(=O)c1cc2c(nc(C)n2C)c2c1CCC(c1ccccc1)O2 (centres unmarked) [Example 19, 2,3Dimethyl-8-phenyl-3,6,7,8-tetrahydro-chromeno[7,8-d]imidazole-5-carboxylic Acid Propyl-amide]
201 to 204 | Cc1nc2c3c(c(C(=O)N4CC4)cc2n1C)CCC(c1ccccc1)O3 (centres unmarked) [Example 13, 1-Aziridin-1-yl-(2,3-dimethyl-8-phenyl-3,6,7,8-tetrahydro-chromeno[7,8-d]imidazol-5-yl)-methanone]
253 to 254 | Cc1nc2c3c(c(CO)cc2n1C)CCC(c1ccccc1)N3 (centres unmarked) [Example 31, 5-Hydroxymethyl-2,3-dimethyl-8-phenyl-6,7,8,9tetrahydro-3H-imidazo[4,5-h]quinoline]
185 to 186 | CCOC(=O)c1cc2c(nc(C)n2C)c2c1CCC(c1ccccc1)N2 (centres unmarked) [Example 25, Ethyl 2,3-dimethyl-8-phenyl-6,7,8,9-tetrahydro-3H-imidazo[4,5-h]quinoline-5-carboxylate]
259 | CNC(=O)c1cc2c(nc(C)n2C)c2c1CCC(c1ccccc1)N2 (centres unmarked) [Example 29, 2,3-Dimethyl-8-phenyl-6,7,8,9-tetrahydro-3H-imidazo[4,5-h]quinoline-5-carboxylic Acid Methylamide]
264 to 267 | Cc1nc2c3c(c(C(N)=O)cc2n1C)CCC(c1ccccc1)O3 (centres unmarked) [Example 3, 2,3-Dimethyl-8-phenyl-3,6,7,8tetrahydro-chromeno[7,8-d]imidazole-5-carboxylic Acid Amide]
167 to 170 | Cc1nc2c3c(c(C(=O)N(C)C)cc2n1C)CCC(c1ccccc1)N3 (centres unmarked) [Example 2, 2,3-Dimethyl-8-phenyl-6,7,8,9-tetrahydro-3H-imidazo[4,5-h]quinoline-5-carboxylic Acid Dimethylamide]
325 to 326 | Cc1nc2c3c(c(C(=O)O)cc2n1C)CCC(c1ccccc1)N3 (centres unmarked) [Example 26, 2,3-Dimethyl-8-phenyl-6,7,8,9-tetrahydro-3H-imidazo[4,5-h]quinoline-5-carboxylic Acid]
228 to 229 | Cc1nc2c3c(c(C(=O)NCCO)cc2n1C)CCC(c1ccccc1)O3 (centres unmarked) [Example 5, 2,3 Dimethyl-8-phenyl-3,6,7,8-tetrahydro-chromeno[7,8-d]imidazole-5-carboxylic Acid (2-Hydroxy-ethyl)-amide]
213 to 215 | COCn1c(C)nc2c3c(c(C(=O)N(C)C)cc21)CCC(c1ccccc1)O3 (centres unmarked) [Example 22, 3Methoxymethyl-2-methyl-8-phenyl-3,6,7,8-tetrahydro-chromeno[7,8-d]imidazole-5-carboxylic Acid Dimethylamide]
192 to 193 | Cc1nc2c3c(c(C(=O)NN4CC4)cc2n1C)CCC(c1ccccc1)N3 (centres unmarked)
176 to 179 | CN(C)C(=O)c1cc2c(nc(C3CC3)n2C)c2c1CCC(c1ccccc1)O2 (centres unmarked) [Example 10, 2-Cyclopropyl-3-methyl-8-phenyl-3,6,7,8-tetrahydro-chromeno[7,8-d]imidazole-5-carboxylic Acid Dimethylamide]
223 to 225 | CN(C)C(=O)c1cc2c(nc(C(F)(F)F)n2C)c2c1CCC(c1ccccc1)O2 (centres unmarked) [Example 14, 3-Methyl-8-phenyl-2-trifluoromethyl-3,6,7,8-tetrahydro-chromeno[7,8-d]imidazole-5-carboxylic Acid Dimethylamide]
323 to 326 | Cc1nc2c3c(c(C(=O)O)cc2n1C)CCC(c1ccccc1)O3 (centres unmarked) [Example 16, 2,3-Dimethyl-8-phenyl-3,6,7,8-tetrahydro-chromeno[7,8-d]imidazole-5-carboxylic Acid]
214 to 216 | CC(=O)N(C)c1cc2c(nc(C)n2C)c2c1CCC(c1ccccc1)O2 (centres unmarked) [Example 23, N-(2,3-Dimethyl-8-phenyl-3,6,7,8-tetrahydro-chromeno[7,8-d]imidazol-5-yl)-N-methyl-acetamide]
172 to 173 | CCOC(=O)c1cc2c(nc(C)n2C)c2c1CCC(c1ccccc1)O2 (centres unmarked) [Example 15, 2,3-Dimethyl-8-phenyl-3,6,7,8-tetrahydro-chromeno[7,8-d]imidazole-5-carboxylic Acid Ethyl Ester]
